pIC50: −log10 of the molar value.
Test system: NCI-H1618 multicellular tumor spheroid viability
Test: Anticancer human tumor NCI-H1618 cell line growth inhibition;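 further: spheroids exposed to agents for 7 days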
Conditions: for pIC50: curve of first compound; for viability, T/C: stronger effect = lower value
Summary of the method: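 Complex tumor spheroids combined malignant cells with endothelial cells and mesenchymal stem cells. DNA-damaging drugs and DNA repair inhibitors were tested alone and in combination, at half-log dilutions down from clinical Cmax (top 10 microM if Cmax unknown), 0.25% DMSO final.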

`Cc1sc2c(c1C)C(c1ccc(Cl)cc1)=NC(CC(=O)Nc1ccc(O)cc1)c1nnc(C)n1-2` (stereo not given) + Cn1nnc2c(C(N)=O)ncn2c1=O gave a pIC50 (second compound 1 µM) of 6.11, a pIC50 (second compound 3.16 µM) greater than 8.02 and a pIC50 (second compound 10 µM) greater than 8.02. It also gave a pIC50 (second compound 31.6 µM) greater than 8.02, a pIC50 (second compound 100 µM) of 6.84 and a viability, T/C (second compound 1 µM, first compound 0.00949 µM) of 97.7%. For the same compound, the viability, T/C (second compound 1 µM, first compound 0.03 µM) was 20.7%, the viability, T/C (second compound 1 µM, first compound 0.0949 µM) was 90% and the viability, T/C (second compound 1 µM, first compound 0.3 µM) was 72%. The viability, T/C (second compound 1 µM, first compound 0.949 µM) was 45.9%, the viability, T/C (second compound 1 µM, first compound 3 µM) was 20.5% and the viability, T/C (second compound 3.16 µM, first compound 0.00949 µM) was 19.5%. For the same compound, the viability, T/C (second compound 3.16 µM, first compound 0.03 µM) was 35.3%, the viability, T/C (second compound 3.16 µM, first compound 0.0949 µM) was 49.1% and the viability, T/C (second compound 3.16 µM, first compound 0.3 µM) was 22.8%. It also gave a viability, T/C (second compound 3.16 µM, first compound 0.949 µM) of 5.18%, a viability, T/C (second compound 3.16 µM, first compound 3 µM) of 5.41% and a viability, T/C (second compound 10 µM, first compound 0.00949 µM) of 6.33%. The viability, T/C (second compound 10 µM, first compound 0.03 µM) was 21.3%, the viability, T/C (second compound 10 µM, first compound 0.0949 µM) was 5.98% and the viability, T/C (second compound 10 µM, first compound 0.3 µM) was 18.9%. It also gave a viability, T/C (second compound 10 µM, first compound 0.949 µM) of 2.4%, a viability, T/C (second compound 10 µM, first compound 3 µM) of 1.94% and a viability, T/C (second compound 31.6 µM, first compound 0.00949 µM) of 7.34%. It also gave a viability, T/C (second compound 31.6 µM, first compound 0.03 µM) of 9.11%, a viability, T/C (second compound 31.6 µM, first compound 0.0949 µM) of 17.6% and a viability, T/C (second compound 31.6 µM, first compound 0.3 µM) of 4.34%. It also gave a viability, T/C (second compound 31.6 µM, first compound 0.949 µM) of 1.89%, a viability, T/C (second compound 31.6 µM, first compound 3 µM) of 1.29% and a viability, T/C (second compound 100 µM, first compound 0.00949 µM) of 53.6%. For the same compound, the viability, T/C (second compound 100 µM, first compound 0.03 µM) was 78.7%, the viability, T/C (second compound 100 µM, first compound 0.0949 µM) was 70.3% and the viability, T/C (second compound 100 µM, first compound 0.3 µM) was 20.8%. The viability, T/C (second compound 100 µM, first compound 0.949 µM) was 6.16% and the viability, T/C (second compound 100 µM, first compound 3 µM) was 0.99%.

With `[2H]c1nc(C)nc([2H])c1-c1cc(NC[C@@H](C)c2cccc3c(C(=O)NC)ccnc23)ncn1` + Cn1nnc2c(C(N)=O)ncn2c1=O the pIC50 (second compound 1 µM) was less than 5.00, the pIC50 (second compound 3.16 µM) was greater than 7.50 and the pIC50 (second compound 10 µM) was greater than 7.50. It also gave a pIC50 (second compound 31.6 µM) greater than 7.50, a pIC50 (second compound 100 µM) greater than 7.50 and a viability, T/C (second compound 1 µM, first compound 0.0316 µM) of 91.3%. For the same compound, the viability, T/C (second compound 1 µM, first compound 0.1 µM) was 91.9%, the viability, T/C (second compound 1 µM, first compound 0.316 µM) was 85.3% and the viability, T/C (second compound 1 µM, first compound 1 µM) was 85.3%. It also gave a viability, T/C (second compound 1 µM, first compound 3.16 µM) of 89.2%, a viability, T/C (second compound 1 µM, first compound 10 µM) of 89.3% and a viability, T/C (second compound 3.16 µM, first compound 0.0316 µM) of 33.1%. For the same compound, the viability, T/C (second compound 3.16 µM, first compound 0.1 µM) was 29.5%, the viability, T/C (second compound 3.16 µM, first compound 0.316 µM) was 21.9% and the viability, T/C (second compound 3.16 µM, first compound 1 µM) was 28.1%. For the same compound, the viability, T/C (second compound 3.16 µM, first compound 3.16 µM) was 13.1%, the viability, T/C (second compound 3.16 µM, first compound 10 µM) was 27.3% and the viability, T/C (second compound 10 µM, first compound 0.0316 µM) was 4.05%. The viability, T/C (second compound 10 µM, first compound 0.1 µM) was 4.95%, the viability, T/C (second compound 10 µM, first compound 0.316 µM) was 5.87% and the viability, T/C (second compound 10 µM, first compound 1 µM) was 7.24%. The viability, T/C (second compound 10 µM, first compound 3.16 µM) was 4.35%, the viability, T/C (second compound 10 µM, first compound 10 µM) was 11.5% and the viability, T/C (second compound 31.6 µM, first compound 0.0316 µM) was 20.8%. It also gave a viability, T/C (second compound 31.6 µM, first compound 0.1 µM) of 19.9%, a viability, T/C (second compound 31.6 µM, first compound 0.316 µM) of 11.3% and a viability, T/C (second compound 31.6 µM, first compound 1 µM) of 15.1%. It also gave a viability, T/C (second compound 31.6 µM, first compound 3.16 µM) of 6.28%, a viability, T/C (second compound 31.6 µM, first compound 10 µM) of 5.54% and a viability, T/C (second compound 100 µM, first compound 0.0316 µM) of 61.9%. It also gave a viability, T/C (second compound 100 µM, first compound 0.1 µM) of 36.3%, a viability, T/C (second compound 100 µM, first compound 0.316 µM) of 22.1% and a viability, T/C (second compound 100 µM, first compound 1 µM) of 59%. For the same compound, the viability, T/C (second compound 100 µM, first compound 3.16 µM) was 46.6% and the viability, T/C (second compound 100 µM, first compound 10 µM) was 34.6%.

— PubChem BioAssay AID1845206 (Molecular Pharmacology Branch, DTP, NCI, 2023)
